Article PMC6175931, “Structural insights into the electron/proton transfer pathways in the quinol:fumarate reductase from Desulfovibrio gigas” (Scientific Reports, 2018)

Molecular target: T1, quinol:fumarate reductase (QFR), site in subunit A (FAD-binding protein) (Megalodesulfovibrio gigas, UniProt T2GB49)
T1 construct: gene fdrA; native, purified from D. gigas membranes in DDM; A2B2C2 homo-dimer; subunit A 627 residues (1-622 built), B 264, C 218; with Fumarate reductase iron-sulfur subunit; Fumarate reductase cytochrome b subunit
T1 sequence (T2GB49 1-627): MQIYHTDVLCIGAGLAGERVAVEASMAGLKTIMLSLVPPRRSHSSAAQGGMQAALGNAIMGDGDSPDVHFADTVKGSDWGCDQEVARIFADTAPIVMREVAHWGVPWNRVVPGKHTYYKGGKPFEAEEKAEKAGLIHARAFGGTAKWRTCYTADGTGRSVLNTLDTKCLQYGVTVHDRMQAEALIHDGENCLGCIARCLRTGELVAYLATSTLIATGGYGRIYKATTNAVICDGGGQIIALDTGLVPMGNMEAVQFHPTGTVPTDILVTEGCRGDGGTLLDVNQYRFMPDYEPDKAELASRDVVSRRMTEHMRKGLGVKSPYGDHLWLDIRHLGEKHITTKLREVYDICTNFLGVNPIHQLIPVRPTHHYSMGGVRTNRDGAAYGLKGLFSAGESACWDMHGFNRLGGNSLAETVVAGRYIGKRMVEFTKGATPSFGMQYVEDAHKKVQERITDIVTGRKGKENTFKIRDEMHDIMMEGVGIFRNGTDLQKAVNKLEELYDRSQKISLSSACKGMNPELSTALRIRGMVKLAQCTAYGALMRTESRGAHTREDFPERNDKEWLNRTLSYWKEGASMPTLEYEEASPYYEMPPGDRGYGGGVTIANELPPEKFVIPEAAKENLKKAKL
T1 sequence (T2G9X8 1-264 partner): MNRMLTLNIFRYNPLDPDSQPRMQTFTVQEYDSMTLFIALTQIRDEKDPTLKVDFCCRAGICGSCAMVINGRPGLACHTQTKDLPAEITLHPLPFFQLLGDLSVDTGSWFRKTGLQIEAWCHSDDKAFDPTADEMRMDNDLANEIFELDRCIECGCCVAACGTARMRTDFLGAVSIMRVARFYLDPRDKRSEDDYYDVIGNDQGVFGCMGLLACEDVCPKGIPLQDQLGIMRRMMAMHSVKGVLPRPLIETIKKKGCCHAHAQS
T1 sequence (T2GAT5 1-218 partner): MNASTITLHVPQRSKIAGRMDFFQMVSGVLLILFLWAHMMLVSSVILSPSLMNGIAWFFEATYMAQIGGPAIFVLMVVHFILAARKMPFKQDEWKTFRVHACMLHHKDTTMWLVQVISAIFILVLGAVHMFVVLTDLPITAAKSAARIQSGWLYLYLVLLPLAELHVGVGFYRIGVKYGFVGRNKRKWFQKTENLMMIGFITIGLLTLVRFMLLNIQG
Test: X-ray crystal structure, […] Å
Details: crystals at pH 8.5

With `Cc1cc2nc3c(=O)[nH]c(=O)nc-3n(C[C@H](O)[C@H](O)[C@H](O)COP(=O)(O)OP(=O)(O)OC[C@H]3O[C@@H](n4cnc5c(N)ncnc54)[C@H](O)[C@@H]3O)c2cc1C` [FAD, flavin adenine dinucleotide] the “X-ray crystal structure, 3.6 Å” value (covalent, C8M methyl of flavin to His-A43) was “FAD binds to the FAD-binding domain through a covalent bond with residue His-A43”.

In the case of `O=C(O)/C=C/C(=O)O` [fumarate], the “X-ray crystal structure, 3.6 Å” value (fumarate site near the FAD in subunit A) was “A fumarate molecule is also observed near the FAD in the A subunit”.
